A short description of this experiment: Antagonist activity at CRTH2 receptor in human whole blood assessed as inhibition of PGD2-induced eosinophil shape change incubated for 20 mins prior to PGD2-challenge measured after 10 mins by flow cytometry.

Each structure is given as a SMILES string.

As to `CCCCC(=O)N(Cc1ccc2c(c1)OCCO2)c1cc(F)cc(-c2nnn[nH]2)c1`, the IC50 was 0.04 µM.

As a reminder, the IC50 is the concentration that gives 50% inhibition.

Source of the values: BindingDB's records for doi:10.1021/ml200223s (2011).
